Measured values from patent US20120065126A1, “Pharmaceutical Compositions Containing Antifungal Peptides” (BASF SE, priority 2009, published 2012).

Legend:
[1] = system: Malassezia furfur; assay: Effect of P18 in the presence of nonionic and zwitterionic surfactants (CFU); type: cell-based; settings: 24 hours
Experimental: The aim of the experiment was to study the effect of nonionic and zwitterionic surfactants on the activity of P18 peptide (P18 sequence […]). For this purpose, the following surfactants were used: Pluracare F 68 (a polyoxyethylene-polyoxypropylene-polyoxyethylene block copolymer) Plantacare 818 (a glucoside) Tego Betain L7 (cocamidopropyl betaine) The growth test was effected as follows: a shake culture containing […]. furfur and incubated with shaking at 30° C. and 200 rpm overnight. […] The concentrations of the detergent solutions were adjusted such that the final concentration of the particular detergent in the mixture was 2%; 4% or 6%. The concentrations of the P18 peptide solutions were adjusted such that the final concentration of the P18 peptide in the mixture was 0 μM; 50 μM; 100 μM; 250 μM; or 500 μM. The microtiter plate was incubated with shaking at 30° C. […] The CFU was determined in order to rule out any influence of the biphasic medium, and also the growth form of M. furfur, on the optical density. The experiments were each conducted in triplicate determination at least in two independent experiments.

[2] = system: Malassezia furfur (DSM 6170); type: cell-based; settings: DSM 6170, 72 h
Experimental: Minimum inhibitory concentration of peptide P18 (P18 sequence H-KWKLFKKIPKFLHLAKKF-NH2 (Bachem AG, Switzerland)) based on Malassezia furfur (DSM 6170)
Growth medium M472 Pityrosporum medium according to DSMZ:
40 g of malt extract (Becton, Dickinson and Company, Sparks, USA) 20 g of ox bile (Merck, Darmstadt, Germany)
A shake culture containing M472 Pityrosporum medium was inoculated with M. furfur and incubated with shaking at 30° C. and 200 rpm overnight.
The suspension was adjusted to an optical density measured at 600 nm of 0.1. A 96-well microtiter plate was filled with 95 μl per well of the M. furfur suspension. Then a dilution series of the peptide with a final concentration in the wells between 0 and 1000 ppm was added. To this end, 5 μl per well of peptide solution with a concentration in the range from 0 ppm to 20 000 ppm were added to the M. furfur suspension, such that final concentrations of the peptide in the wells in the range between 0 ppm and 1000 ppm were obtained.
The microtiter plate was incubated at 30° C., 600 rpm. The fungal growth was assessed by measuring the optical density at 620 nm and observed over 72 hours. The experiments were conducted at least in double determination and independently repeated at least once.

[3] = system: T. rubrum (DSM 21146); assay: P18 in pharmaceutical base formulation (CFU); type: cell-based, Trichophyton rubrum; settings: 10 000 ppm in the formulation, mixed 1:9 with suspension
Experimental: The aim of the experiment was to study the effect of a pharmaceutical base formulation containing the P18 peptide ingredient (P18 sequence H-KWKLFKKIPKFLHLAKKF-NH2 (Bachem AG, Switzerland)) on further fungi and bacteria. For this purpose, the following base formulation was used: […]
1% hydroxycellulose 10% propylene glycol made up with water.
Based on the base formulation, formulations containing 10 000 ppm of P18 peptide were prepared from a 20% concentrate solution.
The effect of the formulations on S. epidermidis (DSM 1798), M. furfur (DSM 6170) and T. rubrum (DSM 21146) was studied.
MEP growth medium according to DSMZ for T. rubrum 30 g of malt extract (Becton, Dickinson and Company, Sparks, USA) 3 g of soya peptone (Becton, Dickinson and Company, Sparks, USA) make up to 1 liter, set pH 5.6.
For T. rubrum, an agar plate on which it had grown was rinsed with 5 ml of medium. 10 μl of the resulting suspension were added to 1 ml of MEP medium and used directly in the experiment.
1.5 ml reaction vessels were each filled with 1 ml of medium and inoculated with the fungal or bacterial suspension from the overnight culture such that the resulting suspensions at the start of the experiment had been adjusted to an optical density, measured at 600 nm, of 0.1. […] After incubation over 24 hours, the colonies on the plates were counted.

With “H-KWKLFKKIPKFLHLAKKF-NH2 [P18, H-KWKLFKKIPKFLHLAKKF-NH2]” the “Colony forming units (CFU) counted per μl” value ([1]; Plantacare 818 2%, P18 50 μM) was 6 CFU per μl, the “Colony forming units (CFU) counted per μl” value ([1]; Plantacare 818 2%, P18 100 μM) was 0 CFU per μl and the “Colony forming units (CFU) counted per μl” value ([1]; Plantacare 818 2%, P18 250 μM) was 0 CFU per μl. For the same substance, the “Colony forming units (CFU) counted per μl” value ([1]; Plantacare 818 2%, P18 500 μM) was 0 CFU per μl, the “Colony forming units (CFU) counted per μl” value ([1]; Plantacare 818 4%, P18 50 μM) was 39 CFU per μl and the “Colony forming units (CFU) counted per μl” value ([1]; Plantacare 818 4%, P18 100 μM) was 5 CFU per μl. For the same substance, the “Colony forming units (CFU) counted per μl” value ([1]; Plantacare 818 4%, P18 250 μM) was 0 CFU per μl, the “Colony forming units (CFU) counted per μl” value ([1]; Plantacare 818 4%, P18 500 μM) was 0 CFU per μl and the “Colony forming units (CFU) counted per μl” value ([1]; Plantacare 818 6%, P18 50 μM) was 106 CFU per μl. For the same substance, the “Colony forming units (CFU) counted per μl” value ([1]; Plantacare 818 6%, P18 100 μM) was 10 CFU per μl, the “Colony forming units (CFU) counted per μl” value ([1]; Plantacare 818 6%, P18 250 μM) was 0 CFU per μl and the “Colony forming units (CFU) counted per μl” value ([1]; Plantacare 818 6%, P18 500 μM) was 0 CFU per μl. For the same substance, the “Colony forming units (CFU) counted per μl” value ([1]; Pluracare F68 2%, P18 50 μM) was 4 CFU per μl, the “Colony forming units (CFU) counted per μl” value ([1]; Pluracare F68 2%, P18 100 μM) was 1 CFU per μl and the “Colony forming units (CFU) counted per μl” value ([1]; Pluracare F68 2%, P18 250 μM) was 0 CFU per μl. For the same substance, the “Colony forming units (CFU) counted per μl” value ([1]; Pluracare F68 2%, P18 500 μM) was 0 CFU per μl, the “Colony forming units (CFU) counted per μl” value ([1]; Pluracare F68 4%, P18 50 μM) was 2 CFU per μl and the “Colony forming units (CFU) counted per μl” value ([1]; Pluracare F68 4%, P18 100 μM) was 0 CFU per μl. The “Colony forming units (CFU) counted per μl” value ([1]; Pluracare F68 4%, P18 250 μM) was 0 CFU per μl, the “Colony forming units (CFU) counted per μl” value ([1]; Pluracare F68 4%, P18 500 μM) was 0 CFU per μl and the “Colony forming units (CFU) counted per μl” value ([1]; Tego Betain L7 2%, P18 50 μM) was 0 CFU per μl. For the same substance, the “Colony forming units (CFU) counted per μl” value ([1]; Tego Betain L7 2%, P18 100 μM) was 0 CFU per μl, the “Colony forming units (CFU) counted per μl” value ([1]; Tego Betain L7 2%, P18 250 μM) was 0 CFU per μl and the “Colony forming units (CFU) counted per μl” value ([1]; Tego Betain L7 2%, P18 500 μM) was 0 CFU per μl. For the same substance, the “Colony forming units (CFU) counted per μl” value ([1]; Tego Betain L7 4%, P18 50 μM) was 3 CFU per μl, the “Colony forming units (CFU) counted per μl” value ([1]; Tego Betain L7 4%, P18 100 μM) was 0 CFU per μl and the “Colony forming units (CFU) counted per μl” value ([1]; Tego Betain L7 4%, P18 250 μM) was 0 CFU per μl. For the same substance, the “Colony forming units (CFU) counted per μl” value ([1]; Tego Betain L7 4%, P18 500 μM) was 0 CFU per μl, the “Colony forming units (CFU) counted per μl” value ([1]; Tego Betain L7 6%, P18 50 μM) was 0 CFU per μl and the “Colony forming units (CFU) counted per μl” value ([1]; Tego Betain L7 6%, P18 100 μM) was 0 CFU per μl. For the same substance, the “Colony forming units (CFU) counted per μl” value ([1]; Tego Betain L7 6%, P18 250 μM) was 0 CFU per μl, the “Colony forming units (CFU) counted per μl” value ([1]; Tego Betain L7 6%, P18 500 μM) was 0 CFU per μl and the Minimum inhibitory concentration [2] was 125 ppm. The “Colony forming units after the incubation time specified” value ([3]; 5 minutes) was 25 ± 8 CFU and the “Colony forming units after the incubation time specified” value ([3]; 60 minutes) was 6 ± 1 CFU.
